Experimental data: publication PMC9975698, “Hyperoside alleviates toxicity of β-amyloid via endoplasmic reticulum-mitochondrial calcium signal transduction cascade in APP/PS1 double transgenic Alzheimer's disease mice” (Redox Biology, 2023)

Experiments:
HT22 cells = assay: Cytoplasmic calcium dynamics (FLIPR Calcium 6); assay type: cell-based
Experimental: Intracellular Ca^2+ dynamics were determined using the FLIPR Calcium 6 Assay Kit (Molecular Devices) according to the manufacturer's instructions. Briefly, HT22 was housed at 4 × 10^4 cells per well in a black-walled and clear-bottom 96 multi-well plate (Costar, MA, USA) and treated with Calcium 6 reagent for 1 h.

APP/PS1 mice [1] = assay: Fear-conditioning test; assay type: in vivo; settings: HYP nasal, every 3 days, 8 weeks
Experimental: All animal care and experimental procedures were performed in accordance with the “Institutional Animal Care and User Committee Guidelines” of the Macau University of Science and Technology. APP/PSEN1 (APP/PS1) mice (N000175) were purchased from the Nanjing Institute of Biomedical Sciences, Nanjing University, China, weighing 25 ± 5 g. The animals were housed in a temperature-controlled room with a 12 h light/dark cycle and given ad libitum food and water. Male mice were randomly divided into the following 6 experimental groups. (a) wild-type group (n = 6), (b) APP/PS1 group (n = 6), (c) HYP (20 mg/kg group) (n = 7), (d) HYP (40 mg/kg) group (n = 8), (e) HYP (80 mg/kg) group (n = 8) and (f) memantine (MEM) (10 mg/kg) positive control group (n = 8). HYP was dissolved in the solvent containing 10% DMSO, 40% PEG300 and 5% Tween-80 in PBS, and administrated via nasal injection for every 3 days with a volume of 0.5 μL/g of body weight for 8 consecutive weeks. The fear conditioning test measures the ability of mice to learn and remember associations between aversive experiences and the environment. On the first day of the fear conditioning test (Yuyan, Shanghai, China), mice were placed in a chamber for 5 min to acclimatize and explore. […] Responses were recorded with a video camera and scored for resting time, which was defined as the absence of any movement other than breathing.

Aβ (1–42) = molecular target: T1, Aβ (1–42) (Homo sapiens, UniProt P05067); assay: Thioflavin T (ThT) fluorescence assay of Aβ fibrillation; assay type: biochemical; settings: Aβ 30 μM, 37 °C, day 1–7
T1 construct: purchased DGpeptites, Hangzhou, CHINA
Experimental: HYP was incubated with Aβ (30 μM) for 7 days at 37 °C at a final volume of 100 μL. ThT fluorescence measurement was measured for every 24 h. ThT (20 μM) dissolved in PBS (pH = 7.4) was added in a black 96-well plate with 10 μL of aggregated Aβ (with or without HYP) and incubated for 1 h. Fluorescence measurement was then performed using a microplate reader (SpectraMax Paradigm, Molecular Devices, CA, USA) with an excitation wavelength of 450 nm and an emission wavelength of 490 nm. Background fluorescence was measured in control samples containing PBS and 0.02 % DMSO.

[2] = Survival, body weight and organ index during the in vivo experiment; set-up: species or system mice; settings: HYP 20/40/80 mg/kg nasal, every 3 days, 8 weeks
Experimental: All animal care and experimental procedures were performed in accordance with the “Institutional Animal Care and User Committee Guidelines” of the Macau University of Science and Technology. APP/PSEN1 (APP/PS1) mice (N000175) were purchased from the Nanjing Institute of Biomedical Sciences, Nanjing University, China, weighing 25 ± 5 g. The animals were housed in a temperature-controlled room with a 12 h light/dark cycle and given ad libitum food and water. Male mice were randomly divided into the following 6 experimental groups. (a) wild-type group (n = 6), (b) APP/PS1 group (n = 6), (c) HYP (20 mg/kg group) (n = 7), (d) HYP (40 mg/kg) group (n = 8), (e) HYP (80 mg/kg) group (n = 8) and (f) memantine (MEM) (10 mg/kg) positive control group (n = 8). HYP was dissolved in the solvent containing 10% DMSO, 40% PEG300 and 5% Tween-80 in PBS, and administrated via nasal injection for every 3 days with a volume of 0.5 μL/g of body weight for 8 consecutive weeks.

APP/PS1 mice [3] = assay: GFAP immunofluorescent staining of brain tissues; assay type: in vivo; settings: cortex and hippocampus, HYP nasal, 8 weeks
Experimental: All animal care and experimental procedures were performed in accordance with the “Institutional Animal Care and User Committee Guidelines” of the Macau University of Science and Technology. APP/PSEN1 (APP/PS1) mice (N000175) were purchased from the Nanjing Institute of Biomedical Sciences, Nanjing University, China, weighing 25 ± 5 g. The animals were housed in a temperature-controlled room with a 12 h light/dark cycle and given ad libitum food and water. Male mice were randomly divided into the following 6 experimental groups. (a) wild-type group (n = 6), (b) APP/PS1 group (n = 6), (c) HYP (20 mg/kg group) (n = 7), (d) HYP (40 mg/kg) group (n = 8), (e) HYP (80 mg/kg) group (n = 8) and (f) memantine (MEM) (10 mg/kg) positive control group (n = 8). HYP was dissolved in the solvent containing 10% DMSO, 40% PEG300 and 5% Tween-80 in PBS, and administrated via nasal injection for every 3 days with a volume of 0.5 μL/g of body weight for 8 consecutive weeks. Brain tissues from all treatment groups were fixed and embedded in paraffin for microtome sectioning and immunofluorescence staining. […] The coverslips were then mounted with FluorSave™ mounting media (Calbiochem, San Diego, CA, USA) for fluorescence imaging. […]

T1 sequence (P05067 672-713 limits assumed): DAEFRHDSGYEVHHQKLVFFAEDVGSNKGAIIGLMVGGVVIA

O=c1c(O[C@@H]2O[C@H](CO)[C@H](O)[C@H](O)[C@H]2O)c(-c2ccc(O)c(O)c2)oc2cc(O)cc(O)c12 [HYP, Quercetin-3-O-β-D-galactopyranoside]
dynamic Ca2+ level induced by Aβ (HT22 cells; HT22 cells, Aβ 30 μM + HYP 20–80 μM, calcium-containing HBSS): decreased the level of Ca^2+ in a dose dependent manner
dynamic Ca2+ level induced by Aβ (HT22 cells; HT22 cells, Aβ 30 μM + HYP 20–80 μM, calcium-free HBSS): downregulated the Aβ -induced level of Ca^2+ in a dose-dependent manner
dynamic Ca2+ level induced by Aβ (HT22 cells; si-RyR2 HT22 cells, aggregated Aβ 30 μM + HYP 40 μM): restored the Aβ-induced dishomeostasis of Ca^2+ in si-RyR2 HT22 cells (Fig. 9H) to a lesser extent
freezing time in fear conditioning test (APP/PS1 mice [1]): significantly decreased the freezing time
Aβ fibrillation and aggregation (ThT fluorescence) (Aβ (1–42)): reduced Aβ fibrillation and aggregation
survival, body weight and organ index [2]: all mice survived without significant changes in body weight
level of GFAP (APP/PS1 mice [3]): decreased the level of GFAP in both the cortex and hippocampus
